Values quoted from earlier work, collected in PubChem BioAssay AID1259409 (Chemical Carcinogenesis Research Information System (CCRIS), 2018).
Where “and” joins values, the source holds several entries; their conditions need not be identical. Equal values may be shown once.

System: rodent chemically induced tumor inhibition, incidence and multiplicity
Assay: CCRIS tumor inhibitor studies
Conditions: Route [Inhibitor]: ORAL, Species: RAT

O=C(O)c1ccc(O)c(O)c1
tumour outcome (control, treated, inhibition, significance) (Carcinogen: 2-AMINO-1-METHYL-6-PHENYLIMIDAZO[4,5-B]PYRIDINE [105650-23-5], Dose [Inhibitor]: 2,000 PPM IN DIET FOR 4 WK BEGINNING WK PRIOR TO FIRST CARCINOGEN DOSE (STUDY DURATION: 25 WK), Strain/Sex: SPRAGUE-DAWLEY/FEMALE, Target Tissue: Type of Lesion: MAMMARY GLAND: FIBROADENOMA OR DUCTAL CARCINOMA, Dose [Carcinogen]: 85 MG/KG BW 2X/WK FOR 4 WK (STUDY DURATION: 25 WK), Promoter: NONE): 63%, 59%, 6%, not significant
tumour outcome (control, treated, inhibition, significance) (Carcinogen: 4-NITROQUINOLINE-1-OXIDE, 56-57-5, Dose [Inhibitor]: 0, 500 PPM IN DIET FOR 10 WK BEGINNING 1 WK PRIOR TO CARCINOGEN TREATMENT (STUDY DURATION: 32 WK), Strain/Sex: F344/MALE, Target Tissue: Type of Lesion: TONGUE: PAPILLOMA, Dose [Carcinogen]: 20 PPM IN DRINKING WATER FOR 8 WK, Promoter: NONE USED): 3/19 (16%), 3/20 (15%), 6%, not significant and 16%, 15%, 6%, not significant
tumour outcome (control, treated, inhibition, significance) (Carcinogen: 4-NITROQUINOLINE-1-OXIDE, 56-57-5, Dose [Inhibitor]: 0, 500 PPM IN DIET FOR 22 WK BEGINNING 1 WK POST CARCINOGEN TREATMENT (STUDY DURATION: 32 WK), Strain/Sex: F344/MALE, Target Tissue: Type of Lesion: TONGUE: PAPILLOMA, Dose [Carcinogen]: 20 PPM IN DRINKING WATER FOR 8 WK, Promoter: NONE USED): 3/19 (16%), 3/21 (14%), 13%, not significant and 16%, 14%, 13%, not significant
tumour outcome (control, treated, inhibition, significance) (Carcinogen: 4-NITROQUINOLINE-1-OXIDE, 56-57-5, Dose [Inhibitor]: 0, 1000 PPM IN DIET FOR 10 WK BEGINNING 1 WK PRIOR TO CARCINOGEN TREATMENT (STUDY DURATION: 32 WK), Strain/Sex: F344/MALE, Target Tissue: Type of Lesion: TONGUE: PAPILLOMA, Dose [Carcinogen]: 20 PPM IN DRINKING WATER FOR 8 WK, Promoter: NONE USED): 3/19 (16%), 2/19 (11%), 31%, not significant and 16%, 11%, 31%, not significant
tumour outcome (control, treated, inhibition, significance) (Carcinogen: 4-NITROQUINOLINE-1-OXIDE, 56-57-5, Dose [Inhibitor]: 0, 1000 PPM IN DIET FOR 22 WK BEGINNING 1 WK POST CARCINOGEN TREATMENT (STUDY DURATION: 32 WK), Strain/Sex: F344/MALE, Target Tissue: Type of Lesion: TONGUE: PAPILLOMA, Dose [Carcinogen]: 20 PPM IN DRINKING WATER FOR 8 WK, Promoter: NONE USED): 3/19 (16%), 4/19 (21%), -31%, not significant
tumour outcome (control, treated, inhibition, significance) (Carcinogen: 4-NITROQUINOLINE-1-OXIDE, 56-57-5, Dose [Inhibitor]: 0, 2000 PPM IN DIET FOR 10 WK BEGINNING 1 WK PRIOR TO CARCINOGEN TREATMENT (STUDY DURATION: 32 WK), Strain/Sex: F344/MALE, Target Tissue: Type of Lesion: TONGUE: PAPILLOMA, Dose [Carcinogen]: 20 PPM IN DRINKING WATER FOR 8 WK, Promoter: NONE USED): 3/19 (16%), 2/21 (10%), 38%, not significant and 16%, 10%, 38%, not significant
tumour outcome (control, treated, inhibition, significance) (Carcinogen: 4-NITROQUINOLINE-1-OXIDE, 56-57-5, Dose [Inhibitor]: 0, 2000 PPM IN DIET FOR 22 WK BEGINNING 1 WK POST CARCINOGEN TREATMENT (STUDY DURATION: 32 WK), Strain/Sex: F344/MALE, Target Tissue: Type of Lesion: TONGUE: PAPILLOMA, Dose [Carcinogen]: 20 PPM IN DRINKING WATER FOR 8 WK, Promoter: NONE USED): 3/19 (16%), 2/20 (10%), 38%, not significant and 16%, 10%, 38%, not significant
tumour outcome (control, treated, inhibition, significance) (Carcinogen: AZOXYMETHANE, 24843-45-2, Dose [Inhibitor]: 0, 500 PPM IN DIET FOR 28 WK BEGINNING 1 WK POST CARCINOGEN TREATMENT (STUDY DURATION: 32 WK), Strain/Sex: F344/MALE, Target Tissue: Type of Lesion: COLON: ADENOMA, Dose [Carcinogen]: 15 MG/KG BW 1/WK FOR 3 WK, Promoter: NONE USED): 10%, 15%, -50%, not significant
tumour outcome (control, treated, inhibition, significance) (Carcinogen: AZOXYMETHANE, 25843-45-2, Dose [Inhibitor]: 0, 250 PPM IN DIET FOR 4 WK BEGINNING 1 WK PRIOR TO CARCINOGEN TREATMENT (STUDY DURATION: 32 WK), Strain/Sex: F344/MALE, Target Tissue: Type of Lesion: COLON: ADENOCARCINOMA, Dose [Carcinogen]: 15 MG/KG BW 1/WK FOR 3 WK, Promoter: NONE USED): 75%, 40%, 47%, not significant
tumour outcome (control, treated, inhibition, significance) (Carcinogen: AZOXYMETHANE, 25843-45-2, Dose [Inhibitor]: 0, 250 PPM IN DIET FOR 4 WK BEGINNING 1 WK PRIOR TO CARCINOGEN TREATMENT (STUDY DURATION: 32 WK), Strain/Sex: F344/MALE, Target Tissue: Type of Lesion: COLON: ADENOMA, Dose [Carcinogen]: 15 MG/KG BW 1/WK FOR 3 WK, Promoter: NONE USED): 10%, 5%, 50%, not significant
tumour outcome (control, treated, inhibition, significance) (Carcinogen: AZOXYMETHANE, 25843-45-2, Dose [Inhibitor]: 0, 250 PPM IN DIET FOR 4 WK BEGINNING 1 WK PRIOR TO CARCINOGEN TREATMENT (STUDY DURATION: 32 WK), Strain/Sex: F344/MALE, Target Tissue: Type of Lesion: LARGE INTESTINE: ADENOCARCINOMA, Dose [Carcinogen]: 15 MG/KG BW 1/WK FOR 3 WK, Promoter: NONE USED): 15/20 (75%), 8/20 (40%), 47%, not significant
tumour outcome (control, treated, inhibition, significance) (Carcinogen: AZOXYMETHANE, 25843-45-2, Dose [Inhibitor]: 0, 250 PPM IN DIET FOR 4 WK BEGINNING 1 WK PRIOR TO CARCINOGEN TREATMENT (STUDY DURATION: 32 WK), Strain/Sex: F344/MALE, Target Tissue: Type of Lesion: LARGE INTESTINE: ADENOMA, Dose [Carcinogen]: 15 MG/KG BW 1/WK FOR 3 WK, Promoter: NONE USED): 2/20 (10%), 1/20 (5%), 50%, not significant
tumour outcome (control, treated, inhibition, significance) (Carcinogen: AZOXYMETHANE, 25843-45-2, Dose [Inhibitor]: 0, 250 PPM IN DIET FOR 4 WK BEGINNING 1 WK PRIOR TO CARCINOGEN TREATMENT (STUDY DURATION: 32 WK), Strain/Sex: F344/MALE, Target Tissue: Type of Lesion: SMALL INTESTINE: ADENOCARCINOMA, Dose [Carcinogen]: 15 MG/KG BW 1/WK FOR 3 WK, Promoter: NONE USED): 6/20 (30%), 7/20 (35%), -17%, not significant
tumour outcome (control, treated, inhibition, significance) (Carcinogen: AZOXYMETHANE, 25843-45-2, Dose [Inhibitor]: 0, 250 PPM IN DIET FOR 4 WK BEGINNING 1 WK PRIOR TO CARCINOGEN TREATMENT (STUDY DURATION: 32 WK), Strain/Sex: F344/MALE, Target Tissue: Type of Lesion: SMALL INTESTINE: ADENOMA, Dose [Carcinogen]: 15 MG/KG BW 1/WK FOR 3 WK, Promoter: NONE USED): 1/20 (5%), 0/20 (0%), 100%, not significant
tumour outcome (control, treated, inhibition, significance) (Carcinogen: AZOXYMETHANE, 25843-45-2, Dose [Inhibitor]: 0, 250 PPM IN DIET FOR 28 WK BEGINNING 1 WK POST CARCINOGEN TREATMENT (STUDY DURATION: 32 WK), Strain/Sex: F344/MALE, Target Tissue: Type of Lesion: COLON: ADENOCARCINOMA, Dose [Carcinogen]: 15 MG/KG BW 1/WK FOR 3 WK, Promoter: NONE USED): 75%, 40%, 47%, not significant
tumour outcome (control, treated, inhibition, significance) (Carcinogen: AZOXYMETHANE, 25843-45-2, Dose [Inhibitor]: 0, 250 PPM IN DIET FOR 28 WK BEGINNING 1 WK POST CARCINOGEN TREATMENT (STUDY DURATION: 32 WK), Strain/Sex: F344/MALE, Target Tissue: Type of Lesion: COLON: ADENOMA, Dose [Carcinogen]: 15 MG/KG BW 1/WK FOR 3 WK, Promoter: NONE USED): 10%, 20%, -100%, not significant
tumour outcome (control, treated, inhibition, significance) (Carcinogen: AZOXYMETHANE, 25843-45-2, Dose [Inhibitor]: 0, 250 PPM IN DIET FOR 28 WK BEGINNING 1 WK POST CARCINOGEN TREATMENT (STUDY DURATION: 32 WK), Strain/Sex: F344/MALE, Target Tissue: Type of Lesion: LARGE INTESTINE: ADENOCARCINOMA, Dose [Carcinogen]: 15 MG/KG BW 1/WK FOR 3 WK, Promoter: NONE USED): 15/20 (75%), 8/20 (40%), 47%, not significant
tumour outcome (control, treated, inhibition, significance) (Carcinogen: AZOXYMETHANE, 25843-45-2, Dose [Inhibitor]: 0, 250 PPM IN DIET FOR 28 WK BEGINNING 1 WK POST CARCINOGEN TREATMENT (STUDY DURATION: 32 WK), Strain/Sex: F344/MALE, Target Tissue: Type of Lesion: LARGE INTESTINE: ADENOMA, Dose [Carcinogen]: 15 MG/KG BW 1/WK FOR 3 WK, Promoter: NONE USED): 2/20 (10%), 4/20 (20%), -100%, not significant
tumour outcome (control, treated, inhibition, significance) (Carcinogen: AZOXYMETHANE, 25843-45-2, Dose [Inhibitor]: 0, 250 PPM IN DIET FOR 28 WK BEGINNING 1 WK POST CARCINOGEN TREATMENT (STUDY DURATION: 32 WK), Strain/Sex: F344/MALE, Target Tissue: Type of Lesion: SMALL INTESTINE: ADENOCARCINOMA, Dose [Carcinogen]: 15 MG/KG BW 1/WK FOR 3 WK, Promoter: NONE USED): 6/20 (30%), 5/20 (25%), 17%, not significant
tumour outcome (control, treated, inhibition, significance) (Carcinogen: AZOXYMETHANE, 25843-45-2, Dose [Inhibitor]: 0, 250 PPM IN DIET FOR 28 WK BEGINNING 1 WK POST CARCINOGEN TREATMENT (STUDY DURATION: 32 WK), Strain/Sex: F344/MALE, Target Tissue: Type of Lesion: SMALL INTESTINE: ADENOMA, Dose [Carcinogen]: 15 MG/KG BW 1/WK FOR 3 WK, Promoter: NONE USED): 1/20 (5%), 0/20 (0%), 100%, not significant
